According to PubChem BioAssay (NCI):
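Interpolation was linear, between the two tested concentrations surrounding the appropriate level; five concentrations were tested over 48 hours in 96-well plates. GI50 = concentration required for 50% inhibition of growth. The concentration for full growth arrest is given as TGI.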

Experiments:
Experiment in all cases: growth of human tumour cells (NCI), 48 h
[1] = tested on: KM12 colon
[2] = tested on: SK-MEL-2 melanoma
[3] = tested on: SW-620 colon
[4] = tested on: MCF7 breast
[5] = tested on: HOP-92 NSCLC
[6] = tested on: NCI-H522 lung
[7] = tested on: NCI-H460 lung
[8] = tested on: SF-268 CNS
[9] = tested on: HCC-2998 colon
[10] = tested on: EKVX NSCLC
[11] = tested on: NCI/ADR-RES ovarian
[12] = tested on: MDA-MB-231 breast
[13] = tested on: SK-MEL-28 melanoma
[14] = tested on: UACC-62 melanoma
[15] = tested on: A498 renal
[16] = tested on: BT-549 breast
[17] = tested on: HCT-15 colon
[18] = tested on: SK-MEL-5 melanoma
[19] = tested on: CAKI-1 renal
[20] = tested on: UO-31 renal
[21] = tested on: OVCAR-5 ovarian
[22] = tested on: MALME-3M melanoma
[23] = tested on: T-47D breast
[24] = tested on: DU-145 prostate
[25] = tested on: UACC-257 melanoma
[26] = tested on: SK-OV-3 ovarian
[27] = tested on: MOLT-4 leukemia
[28] = tested on: HS 578T breast
[29] = tested on: RXF 393 renal
[30] = tested on: 786-0 renal
[31] = tested on: COLO 205 colon
[32] = tested on: SF-295 CNS
[33] = tested on: SNB-19 CNS
[34] = tested on: OVCAR-4 ovarian
[35] = tested on: M14 melanoma
[36] = tested on: MDA-MB-435
[37] = tested on: OVCAR-8 ovarian
[38] = tested on: HCT-116 colon
[39] = tested on: HT29 colon
[40] = tested on: K-562 leukemia
[41] = tested on: ACHN renal
[42] = tested on: OVCAR-3 ovarian
[43] = tested on: PC-3 prostate
[44] = tested on: IGROV1 ovarian
[45] = tested on: HL-60(TB) leukemia
[46] = tested on: TK-10 renal
[47] = tested on: SF-539 CNS
[48] = tested on: NCI-H23 lung
[49] = tested on: CCRF-CEM leukemia
[50] = tested on: SN12C renal
[51] = tested on: RPMI-8226 leukemia
[52] = tested on: U251 CNS
[53] = tested on: NCI-H226 lung
[54] = tested on: MDA-MB-468 breast
[55] = tested on: HOP-62 NSCLC
[56] = tested on: SNB-75 CNS
[57] = tested on: A549 NSCLC
[58] = tested on: LOX IMVI melanoma

With `Cc1ccccc1[C@H]1C(C(=O)c2ccc(Cl)cc2)C2(N[C@@H]1c1ccccc1)C(=O)Nc1ccc(Br)cc12` (stereo partly specified) the GI50 [1] was 5.63 µM, the TGI [1] was 11.6 µM and the GI50 [2] was 5.32 µM. It also gave a TGI [2] of 10.7 µM, a GI50 [3] of 5.9 µM and a TGI [3] of 11.7 µM. The GI50 [4] was 4.33 µM, the TGI [4] was 10.2 µM and the GI50 [5] was 2.99 µM. For the same compound, the TGI [5] was 7.93 µM, the GI50 [6] was 5.86 µM and the TGI [6] was 11.5 µM. For the same compound, the GI50 [7] was 6.07 µM, the TGI [7] was 12.7 µM and the GI50 [8] was 4.74 µM. For the same compound, the TGI [8] was 10.2 µM, the GI50 [9] was 5.87 µM and the TGI [9] was 10.9 µM. It also gave a GI50 [10] of 4.33 µM, a TGI [10] of 9.25 µM and a GI50 [11] of 5.54 µM. It also gave a TGI [11] of 12.1 µM, a GI50 [12] of 5.34 µM and a TGI [12] of 10.2 µM. For the same compound, the GI50 [13] was 5.78 µM, the TGI [13] was 10.7 µM and the GI50 [14] was 4.69 µM. It also gave a TGI [14] of 9.48 µM, a GI50 [15] of 6.11 µM and a TGI [15] of 11.7 µM. For the same compound, the GI50 [16] was 5.56 µM, the TGI [16] was 10.6 µM and the GI50 [17] was 5.39 µM. The TGI [17] was 10.7 µM, the GI50 [18] was 5.83 µM and the TGI [18] was 10.8 µM. It also gave a GI50 [19] of 4.11 µM, a TGI [19] of 8.63 µM and a GI50 [20] of 4.41 µM. For the same compound, the TGI [20] was 8.94 µM, the GI50 [21] was 4.89 µM and the TGI [21] was 9.61 µM. The GI50 [22] was 5.35 µM, the TGI [22] was 10.3 µM and the GI50 [23] was 4.09 µM. The TGI [23] was 9.42 µM, the GI50 [24] was 5.46 µM and the TGI [24] was 10.6 µM. It also gave a GI50 [25] of 5.77 µM, a TGI [25] of 11.5 µM and a GI50 [26] of 6.75 µM. For the same compound, the TGI [26] was 15.9 µM, the GI50 [27] was 6.48 µM and the TGI [27] was 23.3 µM. The GI50 [28] was 5.62 µM, the TGI [28] was 18.5 µM and the GI50 [29] was 3.67 µM. It also gave a TGI [29] of 8.34 µM, a GI50 [30] of 5.9 µM and a TGI [30] of 10.9 µM. The GI50 [31] was 5.7 µM, the TGI [31] was 11.1 µM and the GI50 [32] was 4.77 µM. The TGI [32] was 9.52 µM, the GI50 [33] was 6.08 µM and the TGI [33] was 12.1 µM. It also gave a GI50 [34] of 4.72 µM, a TGI [34] of 10.5 µM and a GI50 [35] of 5.9 µM. It also gave a TGI [35] of 11.1 µM, a GI50 [36] of 5.61 µM and a TGI [36] of 10.6 µM. For the same compound, the GI50 [37] was 6.35 µM, the TGI [37] was 15 µM and the GI50 [38] was 5.26 µM. For the same compound, the TGI [38] was 10.2 µM, the GI50 [39] was 5.52 µM and the TGI [39] was 13.2 µM. The GI50 [40] was 8.79 µM, the TGI [40] was 36.5 µM and the GI50 [41] was 5.76 µM. It also gave a TGI [41] of 10.7 µM, a GI50 [42] of 3.77 µM and a TGI [42] of 8.32 µM. For the same compound, the GI50 [43] was 4.09 µM, the TGI [43] was 9.8 µM and the GI50 [44] was 4.85 µM. For the same compound, the TGI [44] was 10.4 µM, the GI50 [45] was 9.02 µM and the TGI [45] was 28.7 µM. It also gave a GI50 [46] of 5.54 µM, a TGI [46] of 10.9 µM and a GI50 [47] of 5.99 µM. It also gave a TGI [47] of 11.2 µM, a GI50 [48] of 5.39 µM and a TGI [48] of 10.9 µM. The GI50 [49] was 7.4 µM, the TGI [49] was 22.4 µM and the GI50 [50] was 4.8 µM. The TGI [50] was 9.56 µM, the GI50 [51] was 7.29 µM and the TGI [51] was 23.4 µM. It also gave a GI50 [52] of 5.6 µM, a TGI [52] of 12.1 µM and a GI50 [53] of 5.39 µM. It also gave a TGI [53] of 10.6 µM, a GI50 [54] of 5.24 µM and a TGI [54] of 10.1 µM. For the same compound, the GI50 [55] was 5.91 µM, the TGI [55] was 11.6 µM and the GI50 [56] was 2.7 µM. The TGI [56] was 9.33 µM, the GI50 [57] was 5.44 µM and the TGI [57] was 11.8 µM. The GI50 [58] was 5.22 µM and the TGI [58] was 9.99 µM.
